Measurements reported in ChEMBL document CHEMBL2010767, “Agonists for the Chemokine Receptor CXCR4” (ACS Med Chem Lett, 2011).
Activity calls are given as the source filed them. The calls are words filed in the database; no cut-off is given here.

What was measured:
[1] = target: T1, C-X-C chemokine receptor type 4 (Homo sapiens, UniProt P61073); assay: Displacement of [125I]-SDF-1alpha from human CXCR4 receptor expressed in HEK293 cells after 1 hr by gamma counting; format: cell-based
[2] = target: T1, C-X-C chemokine receptor type 4; assay: Agonist activity at CXCR4 receptor in human REH cells assessed as induction of chemotactic migration after 3 hrs; format: functional, cell-based
[3] = target: T1, C-X-C chemokine receptor type 4; assay: Agonist activity at CXCR4 receptor in human REH cells assessed as induction of chemotactic migration at 10 nM after 3 hrs; format: functional, cell-based
[4] = target: T1, C-X-C chemokine receptor type 4; assay: Antagonist activity at CXCR4 receptor in human REH cells assessed as inhibition of SDF-1alpha-induced chemotactic migration after 3 hrs; format: functional, cell-based

T1 sequence (P61073 whole entry): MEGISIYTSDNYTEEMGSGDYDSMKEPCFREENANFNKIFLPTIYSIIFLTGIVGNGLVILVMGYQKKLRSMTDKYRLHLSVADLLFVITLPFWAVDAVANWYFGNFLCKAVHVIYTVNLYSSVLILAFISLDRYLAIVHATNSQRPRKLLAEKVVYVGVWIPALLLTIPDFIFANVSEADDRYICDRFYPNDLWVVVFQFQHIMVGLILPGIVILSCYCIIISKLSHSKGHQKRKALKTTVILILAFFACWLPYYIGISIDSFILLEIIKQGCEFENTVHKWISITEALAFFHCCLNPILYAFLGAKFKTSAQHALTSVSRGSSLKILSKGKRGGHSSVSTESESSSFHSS

Row | IC50 [1] [nM] | SMILES | other results
1 | 28.3 | CC(C)C[C@H](NC(=O)[C@H](CO)NC(=O)[C@@H](NC(=O)[C@@H]1CCCN1C(=O)[C@@H](N)CCCCN)C(C)C)C(=O)N[C@@H](CO)C(=O)NCCCC[C@H](NC(=O)[C@@H]1CSSC[C@H](NC(=O)[C@H](Cc2ccc3ccccc3c2)NC(=O)[C@H](CCCNC(=N)N)NC(=O)[C@@H](N)CCCNC(=N)N)C(=O)N[C@@H](Cc2ccc(O)cc2)C(=O)N[C@@H](CCCNC(=N)N)C(=O)N[C@@H](CCCCN)C(=O)N[C@H](CCCCN)C(=O)N2CCC[C@H]2C(=O)N[C@@H](Cc2ccc(O)cc2)C(=O)N[C@@H](CCCNC(=N)N)C(=O)N[C@@H](CCCNC(=N)N)C(=O)C1)C(=O)O | Activity [2]: inactive
2 | 21.2 | CC(C)C[C@H](NC(=O)[C@H](CO)NC(=O)[C@@H](NC(=O)[C@@H]1CCCN1C(=O)[C@@H](N)CCCCN)C(C)C)C(=O)N[C@@H](CO)C(=O)N[C@@H](Cc1ccc(O)cc1)C(=O)N[C@@H](CCCNC(=N)N)C(=O)N[C@@H](CO)C(=O)NCCCC[C@H](NC(=O)[C@@H]1CSSC[C@H](NC(=O)[C@H](Cc2ccc3ccccc3c2)NC(=O)[C@H](CCCNC(=N)N)NC(=O)[C@@H](N)CCCNC(=N)N)C(=O)N[C@@H](Cc2ccc(O)cc2)C(=O)N[C@@H](CCCNC(=N)N)C(=O)N[C@@H](CCCCN)C(=O)N[C@H](CCCCN)C(=O)N2CCC[C@H]2C(=O)N[C@@H](Cc2ccc(O)cc2)C(=O)N[C@@H](CCCNC(=N)N)C(=O)N[C@@H](CCCNC(N)=O)C(=O)C1)C(=O)O | Activity [2]: inactive
3 |  | CC(C)C[C@H](NC(=O)[C@H](CO)NC(=O)[C@@H](NC(=O)[C@@H]1CCCN1C(=O)[C@@H](N)CCCCN)C(C)C)C(=O)N[C@@H](CO)C(=O)N[C@@H](Cc1ccc(O)cc1)C(=O)N[C@@H](CCCNC(=N)N)C(=O)N[C@@H](CO)C(=O)NCCCC[C@H](NC(=O)[C@@H]1CSSC[C@H](NC(=O)[C@H](Cc2ccc3ccccc3c2)NC(=O)[C@H](CCCNC(=N)N)NC(=O)[C@@H](N)CCCNC(=N)N)C(=O)N[C@@H](Cc2ccc(O)cc2)C(=O)N[C@@H](CCCNC(=N)N)C(=O)N[C@@H](CCCCN)C(=O)N[C@H](CCCCN)C(=O)N2CCC[C@H]2C(=O)N[C@@H](Cc2ccc(O)cc2)C(=O)N[C@@H](CCCNC(=N)N)C(=O)N[C@@H](CCCNC(=N)N)C(=O)C1)C(=O)O | Activity [3]: Active
4 |  | CC(C)C[C@H](NC(=O)[C@H](CO)NC(=O)[C@@H](NC(=O)[C@@H]1CCCN1C(=O)[C@@H](N)CCCCN)C(C)C)C(=O)N[C@@H](CO)C(=O)N[C@@H](Cc1ccc(O)cc1)C(=O)N[C@@H](CCCNC(=N)N)C(=O)NCCCC[C@@H]1NC(=O)[C@H](CCCNC(=N)N)NC(=O)[C@H](Cc2ccc(O)cc2)NC(=O)[C@@H]2CCCN2C(=O)[C@@H](CCCCN)NC(=O)[C@H](CCCCN)NC(=O)[C@H](CCCNC(=N)N)NC(=O)[C@H](Cc2ccc(O)cc2)NC(=O)[C@@H](NC(=O)[C@H](Cc2ccc3ccccc3c2)NC(=O)[C@H](CCCNC(=N)N)NC(=O)[C@@H](N)CCCNC(=N)N)CSSC[C@@H](C(=O)N[C@@H](CCCNC(=N)N)C(=O)O)CC1=O | Activity [4]: Active
5 | 5.67 | CC(C)C[C@H](NC(=O)[C@H](CO)NC(=O)[C@@H](NC(=O)[C@@H]1CCCN1C(=O)[C@@H](N)CCCCN)C(C)C)C(=O)N[C@@H](CO)C(=O)N[C@@H](Cc1ccc(O)cc1)C(=O)N[C@@H](CCCN=C(N)N)C(=O)N[C@@H](CO)C(=O)NCCCC[C@H](NC(=O)[C@@H]1CSSC[C@H](NC(=O)[C@H](Cc2ccc3ccccc3c2)NC(=O)[C@H](CCCN=C(N)N)NC(=O)[C@@H](N)CCCN=C(N)N)C(=O)N[C@@H](Cc2ccc(O)cc2)C(=O)N[C@@H](CCCN=C(N)N)C(=O)N[C@@H](CCCCN)C(=O)N[C@H](CCCCN)C(=O)N2CCC[C@H]2C(=O)N[C@@H](Cc2ccc(O)cc2)C(=O)N[C@@H](CCCN=C(N)N)C(=O)N[C@@H](CCCN=C(N)N)C(=O)C1)C(=O)O | 
6 | 16.5 | CC(C)C[C@H](NC(=O)[C@H](CO)NC(=O)[C@@H](NC(=O)[C@@H]1CCCN1C(=O)[C@@H](N)CCCCN)C(C)C)C(=O)N[C@@H](CO)C(=O)N[C@@H](Cc1ccc(O)cc1)C(=O)N[C@@H](CCCNC(=N)N)C(=O)NCCCC[C@H](NC(=O)[C@@H]1CSSC[C@H](NC(=O)[C@H](Cc2ccc3ccccc3c2)NC(=O)[C@H](CCCNC(=N)N)NC(=O)[C@@H](N)CCCNC(=N)N)C(=O)N[C@@H](Cc2ccc(O)cc2)C(=O)N[C@@H](CCCNC(=N)N)C(=O)N[C@@H](CCCCN)C(=O)N[C@H](CCCCN)C(=O)N2CCC[C@H]2C(=O)N[C@@H](Cc2ccc(O)cc2)C(=O)N[C@@H](CCCNC(=N)N)C(=O)N[C@@H](CCCNC(=N)N)C(=O)C1)C(=O)O | Activity [2]: inactive
7 |  | CC(C)C[C@H](NC(=O)[C@H](CO)NC(=O)[C@@H](NC(=O)[C@@H]1CCCN1C(=O)[C@@H](N)CCCCN)C(C)C)C(=O)N[C@@H](CO)C(=O)N[C@@H](Cc1ccc(O)cc1)C(=O)N[C@@H](CCCNC(=N)N)C(=O)N[C@@H](CO)C(=O)N[C@@H](C)C(=O)NCCCC[C@H](NC(=O)[C@@H]1CSSC[C@H](NC(=O)[C@H](Cc2ccc3ccccc3c2)NC(=O)[C@H](CCCNC(=N)N)NC(=O)[C@@H](N)CCCNC(=N)N)C(=O)N[C@@H](Cc2ccc(O)cc2)C(=O)N[C@@H](CCCNC(=N)N)C(=O)N[C@@H](CCCCN)C(=O)N[C@H](CCCCN)C(=O)N2CCC[C@H]2C(=O)N[C@@H](Cc2ccc(O)cc2)C(=O)N[C@@H](CCCNC(=N)N)C(=O)N[C@@H](CCCNC(=N)N)C(=O)C1)C(=O)O | Activity [3]: Active
8 | 24.9 | CC(C)C[C@H](NC(=O)[C@H](CO)NC(=O)[C@@H](NC(=O)[C@@H]1CCCN1C(=O)[C@@H](N)CCCCN)C(C)C)C(=O)N[C@@H](CO)C(=O)N[C@@H](Cc1ccc(O)cc1)C(=O)N[C@@H](CCCN=C(N)N)C(=O)N[C@@H](CO)C(=O)N[C@@H](C)C(=O)NCCCC[C@H](NC(=O)[C@@H]1CSSC[C@H](NC(=O)[C@H](Cc2ccc3ccccc3c2)NC(=O)[C@H](CCCN=C(N)N)NC(=O)[C@@H](N)CCCN=C(N)N)C(=O)N[C@@H](Cc2ccc(O)cc2)C(=O)N[C@@H](CCCN=C(N)N)C(=O)N[C@@H](CCCCN)C(=O)N[C@H](CCCCN)C(=O)N2CCC[C@H]2C(=O)N[C@@H](Cc2ccc(O)cc2)C(=O)N[C@@H](CCCN=C(N)N)C(=O)N[C@@H](CCCN=C(N)N)C(=O)C1)C(=O)O | 
9 | 62 | CC(C)C[C@H](NC(=O)[C@H](CO)NC(=O)[C@@H](NC(=O)[C@@H]1CCCN1C(=O)[C@@H](N)CCCCN)C(C)C)C(=O)N[C@@H](CO)C(=O)NCCCC[C@H](NC(=O)[C@@H]1CSSC[C@H](NC(=O)[C@H](Cc2ccc3ccccc3c2)NC(=O)[C@H](CCCN=C(N)N)NC(=O)[C@@H](N)CCCN=C(N)N)C(=O)N[C@@H](Cc2ccc(O)cc2)C(=O)N[C@@H](CCCN=C(N)N)C(=O)N[C@@H](CCCCN)C(=O)N[C@H](CCCCN)C(=O)N2CCC[C@H]2C(=O)N[C@@H](Cc2ccc(O)cc2)C(=O)N[C@@H](CCCN=C(N)N)C(=O)N[C@@H](CCCNC(N)=O)C(=O)C1)C(=O)O | 
10 | 21.7 | CC(C)C[C@H](NC(=O)[C@H](CO)NC(=O)[C@@H](NC(=O)[C@@H]1CCCN1C(=O)[C@@H](N)CCCCN)C(C)C)C(=O)N[C@@H](CO)C(=O)N[C@@H](Cc1ccc(O)cc1)C(=O)N[C@@H](CCCN=C(N)N)C(=O)NCCCC[C@H](NC(=O)[C@@H]1CSSC[C@H](NC(=O)[C@H](Cc2ccc3ccccc3c2)NC(=O)[C@H](CCCN=C(N)N)NC(=O)[C@@H](N)CCCN=C(N)N)C(=O)N[C@@H](Cc2ccc(O)cc2)C(=O)N[C@@H](CCCN=C(N)N)C(=O)N[C@@H](CCCCN)C(=O)N[C@H](CCCCN)C(=O)N2CCC[C@H]2C(=O)N[C@@H](Cc2ccc(O)cc2)C(=O)N[C@@H](CCCN=C(N)N)C(=O)N[C@@H](CCCNC(N)=O)C(=O)C1)C(=O)O | 
11 | 38.6 | CC(C)C[C@H](NC(=O)[C@H](CO)NC(=O)[C@@H](NC(=O)[C@@H]1CCCN1C(=O)[C@@H](N)CCCCN)C(C)C)C(=O)N[C@@H](CO)C(=O)N[C@@H](Cc1ccc(O)cc1)C(=O)NCCCC[C@H](NC(=O)[C@@H]1CSSC[C@H](NC(=O)[C@H](Cc2ccc3ccccc3c2)NC(=O)[C@H](CCCNC(=N)N)NC(=O)[C@@H](N)CCCNC(=N)N)C(=O)N[C@@H](Cc2ccc(O)cc2)C(=O)N[C@@H](CCCNC(=N)N)C(=O)N[C@@H](CCCCN)C(=O)N[C@H](CCCCN)C(=O)N2CCC[C@H]2C(=O)N[C@@H](Cc2ccc(O)cc2)C(=O)N[C@@H](CCCNC(=N)N)C(=O)N[C@@H](CCCNC(=N)N)C(=O)C1)C(=O)O | Activity [3]: Active
12 |  | CC(C)C[C@H](NC(=O)[C@H](CO)NC(=O)[C@@H](NC(=O)[C@@H]1CCCN1C(=O)[C@@H](N)CCCCN)C(C)C)C(=O)N[C@@H](CO)C(=O)NCCCC[C@H](NC(=O)[C@@H]1CSSC[C@H](NC(=O)[C@H](Cc2ccc3ccccc3c2)NC(=O)[C@H](CCCNC(=N)N)NC(=O)[C@@H](N)CCCNC(=N)N)C(=O)N[C@@H](Cc2ccc(O)cc2)C(=O)N[C@@H](CCCNC(=N)N)C(=O)N[C@@H](CCCCN)C(=O)N[C@H](CCCCN)C(=O)N2CCC[C@H]2C(=O)N[C@@H](Cc2ccc(O)cc2)C(=O)N[C@@H](CCCNC(=N)N)C(=O)N[C@@H](CCCNC(N)=O)C(=O)C1)C(=O)O | Activity [2]: inactive
13 | 1.56 | NCCCC[C@@H]1NC(=O)[C@H](CCCN=C(N)N)NC(=O)[C@H](Cc2ccc(O)cc2)NC(=O)[C@@H](NC(=O)[C@H](Cc2ccc3ccccc3c2)NC(=O)[C@H](CCCN=C(N)N)NC(=O)[C@@H](N)CCCN=C(N)N)CSSC[C@@H](C(=O)N[C@@H](CCCN=C(N)N)C(=O)O)CC(=O)[C@H](CCCNC(N)=O)NC(=O)[C@H](CCCN=C(N)N)NC(=O)[C@H](Cc2ccc(O)cc2)NC(=O)[C@@H]2CCCN2C(=O)[C@@H](CCCCN)NC1=O | 
14 | 1.36 | CC(C)C[C@H](NC(=O)[C@H](CO)NC(=O)[C@@H](NC(=O)[C@@H]1CCCN1C(=O)[C@@H](N)CCCCN)C(C)C)C(=O)N[C@@H](CO)C(=O)N[C@@H](Cc1ccc(O)cc1)C(=O)N[C@@H](CCCN=C(N)N)C(=O)NCCCC[C@@H]1NC(=O)[C@H](CCCN=C(N)N)NC(=O)[C@H](Cc2ccc(O)cc2)NC(=O)[C@@H]2CCCN2C(=O)[C@@H](CCCCN)NC(=O)[C@H](CCCCN)NC(=O)[C@H](CCCN=C(N)N)NC(=O)[C@H](Cc2ccc(O)cc2)NC(=O)[C@@H](NC(=O)[C@H](Cc2ccc3ccccc3c2)NC(=O)[C@H](CCCN=C(N)N)NC(=O)[C@@H](N)CCCN=C(N)N)CSSC[C@@H](C(=O)N[C@@H](CCCN=C(N)N)C(=O)O)CC1=O | 
